Laboratory results as given in patent US10611762B2, “Crystalline forms of a FGFR inhibitor and processes for preparing the same” (Incyte Corporation, priority 2017, dated 2020).
Values after ≈ are worked out from the molar mass of the structure shown.

Assays:
Format in all cases: physicochemical
[1] = Solubility measurement in various solvents at 23 ± 1° C. (Procedure 1)
Protocol: (§1) The solubility of the Compound 1 Form I was measured according to Procedure 1 for solubility in 23±1° C. (Table 13) and Procedure 2 for 50±1° C.

[2] = Solubility measurement in various solvents at 50 ± 1° C. (Procedure 2)
Protocol: as §1

[3] = Competitive slurry experiments (stability relationship of Compound 1 forms); conditions: in acetone/water (2:1) and acetone/water (1:1), 23-25° C.
Protocol: To evaluate the transformation of Compound 1 solid forms, competitive slurry experiments in production crystallization solvents at 23-25° C. were performed with a mixture of […] polymorphs (Form I through Form XI) according to the procedures in Table 25 (acetone/water 2:1) and Table 26 (acetone/water 1:1).

C=CC(=O)NCc1cc2c(cn1)CN(c1c(F)c(OC)cc(OC)c1F)C(=O)C21CC1 [Form II]
solubility ([1]; Chloroform, 23 °C, organic solvent or mixture, thermodynamic from solid, Chloroform, read-out: Solubility at 23 ± 1° C.): 26700 µg/mL (≈ 62.1 mM) | solubility ([2]; Chloroform, 50 °C, organic solvent or mixture, thermodynamic from solid, Chloroform, read-out: Solubility at 50 ± 1° C.): > 50000 µg/mL

C=CC(=O)NCc1cc2c(cn1)CN(c1c(F)c(OC)cc(OC)c1F)C(=O)C21CC1 [Compound 1 Form I, N-((2′-(2,6-difluoro-3,5-dimethoxyphenyl)-3′-oxo-2′,3′-dihydro-1′H-spiro[cyclopropane-1,4′-[2,7]naphthyridine]-6′-yl)methyl)acrylamide]
solubility ([1]; 1-Propanol, 23 °C, organic solvent or mixture, thermodynamic from solid, 1-Propanol, read-out: Solubility at 23 ± 1° C.): 1720 µg/mL (≈ 4.01 mM) | solubility ([1]; 2-methoxyethanol, 23 °C, organic solvent or mixture, thermodynamic from solid, 2-Methoxyethanol, read-out: Solubility at 23 ± 1° C.): 20200 µg/mL (≈ 47 mM) | solubility ([1]; Acetone/water (1:1), 23 °C, aqueous with cosolvent or surfactant or cyclodextrin, thermodynamic from solid, Acetone/water (1:1), read-out: Solubility at 23 ± 1° C.): 3970 µg/mL (≈ 9.24 mM) | solubility ([1]; Acetone/water (1:2), 23 °C, aqueous with cosolvent or surfactant or cyclodextrin, thermodynamic from solid, Acetone/water (1:2), read-out: Solubility at 23 ± 1° C.): 860 µg/mL (≈ 2 mM) | solubility ([1]; Acetone/water (1:4), 23 °C, aqueous with cosolvent or surfactant or cyclodextrin, thermodynamic from solid, Acetone/water (1:4), read-out: Solubility at 23 ± 1° C.): 170 µg/mL (≈ 0.396 mM) | solubility ([1]; Acetone/water (2:1), 23 °C, aqueous with cosolvent or surfactant or cyclodextrin, thermodynamic from solid, Acetone/water (2:1), read-out: Solubility at 23 ± 1° C.): 12500 µg/mL (≈ 29 mM) | solubility ([1]; Acetone/water (4:1), 23 °C, aqueous with cosolvent or surfactant or cyclodextrin, thermodynamic from solid, Acetone/water (4:1), read-out: Solubility at 23 ± 1° C.): 19400 µg/mL (≈ 45.2 mM) | solubility ([1]; DCM/MeOH (1:1), 23 °C, organic solvent or mixture, thermodynamic from solid, DCM/MeOH (1:1), read-out: Solubility at 23 ± 1° C.): > 50000 µg/mL | solubility ([1]; DMF, 23 °C, organic solvent or mixture, thermodynamic from solid, DMF, read-out: Solubility at 23 ± 1° C.): > 50000 µg/mL | solubility ([1]; DMSO, 23 °C, organic solvent or mixture, thermodynamic from solid, DMSO, read-out: Solubility at 23 ± 1° C.): > 50000 µg/mL | solubility ([1]; DMSO, DMF, DCM/MeOH (1:1), THF/water (4:1), 23 °C, organic solvent or mixture, thermodynamic from solid, at 23° C. in DMSO, DMF, DCM/MeOH (1:1), and THF/water (4:1), read-out: Solubility (completely soluble)): > 50000 µg/mL | solubility ([1]; Dichloromethane, 23 °C, organic solvent or mixture, thermodynamic from solid, Dichloromethane, read-out: Solubility at 23 ± 1° C.): 12400 µg/mL (≈ 29 mM) | solubility ([1]; EtOAc, 23 °C, organic solvent or mixture, thermodynamic from solid, EtOAc, read-out: Solubility at 23 ± 1° C.): 890 µg/mL (≈ 2.07 mM) | solubility ([1]; EtOH, 23 °C, organic solvent or mixture, thermodynamic from solid, EtOH, read-out: Solubility at 23 ± 1° C.): 2010 µg/mL (≈ 4.68 mM) | solubility ([1]; IPA, 23 °C, organic solvent or mixture, thermodynamic from solid, IPA, read-out: Solubility at 23 ± 1° C.): 900 µg/mL (≈ 2.1 mM) | solubility ([1]; IPAc, 23 °C, organic solvent or mixture, thermodynamic from solid, IPAc, read-out: Solubility at 23 ± 1° C.): 440 µg/mL (≈ 1.02 mM) | solubility ([1]; MEK, 23 °C, organic solvent or mixture, thermodynamic from solid, MEK, read-out: Solubility at 23 ± 1° C.): 3580 µg/mL (≈ 8.34 mM) | solubility ([1]; MIBK, 23 °C, organic solvent or mixture, thermodynamic from solid, MIBK, read-out: Solubility at 23 ± 1° C.): 910 µg/mL (≈ 2.12 mM) | solubility ([1]; MeCN, 23 °C, organic solvent or mixture, thermodynamic from solid, MeCN, read-out: Solubility at 23 ± 1° C.): 4590 µg/mL (≈ 10.7 mM) | solubility ([1]; THF, 23 °C, organic solvent or mixture, thermodynamic from solid, THF, read-out: Solubility at 23 ± 1° C.): 3770 µg/mL (≈ 8.78 mM) | solubility ([1]; THF/water (4:1), 23 °C, organic solvent or mixture, thermodynamic from solid, THF/water (4:1), read-out: Solubility at 23 ± 1° C.): > 50000 µg/mL | solubility ([1]; acetone, 23 °C, organic solvent or mixture, thermodynamic from solid, Acetone, read-out: Solubility at 23 ± 1° C.): 5100 µg/mL (≈ 11.9 mM) | Solubility (slightly soluble) ([1]; at 23° C. in MeCN, 1,4-dioxane, MeOH, 2-methoxyethanol, THF, acetone, n-BuOH, EtOH, ethyl formate, 1-propanol, MEK, acetone water (2:1), acetone water (1:1), chloroform and dichloromethane): 1000 to 50000 µg/mL | solubility ([1]; ethyl formate, 23 °C, organic solvent or mixture, thermodynamic from solid, Ethyl formate, read-out: Solubility at 23 ± 1° C.): 2200 µg/mL (≈ 5.12 mM) | solubility ([1]; isobutyl acetate, 23 °C, organic solvent or mixture, thermodynamic from solid, Isobutyl acetate, read-out: Solubility at 23 ± 1° C.): 280 µg/mL (≈ 0.652 mM) | solubility ([1]; methanol, 23 °C, organic solvent or mixture, thermodynamic from solid, Methanol, read-out: Solubility at 23 ± 1° C.): 5350 µg/mL (≈ 12.5 mM) | solubility ([1]; n-BuOH, 23 °C, organic solvent or mixture, thermodynamic from solid, n-BuOH, read-out: Solubility at 23 ± 1° C.): 1180 µg/mL (≈ 2.75 mM) | solubility ([1]; organic solvent or mixture, thermodynamic from solid, at 23° C. in heptane, hexane, toluene, MTBE, isobutyl acetate, IPAc, water, acetone water (1:4), MIBK, EtOAc, IPA, and acetone water (1:2), read-out: Solubility (insoluble)): < 1000 µg/mL | solubility ([1]; water, 23 °C, water, thermodynamic from solid, Water, read-out: Solubility at 23 ± 1° C.): 10 µg/mL (≈ 0.0233 mM) | solubility ([2]; 1-Propanol, 50 °C, organic solvent or mixture, thermodynamic from solid, 1-Propanol, read-out: Solubility at 50 ± 1° C.): 2890 µg/mL (≈ 6.73 mM) | solubility ([2]; 2-methoxyethanol, 50 °C, organic solvent or mixture, thermodynamic from solid, 2-Methoxyethanol, read-out: Solubility at 50 ± 1° C.): 36600 µg/mL (≈ 85.3 mM) | solubility ([2]; 50 °C, organic solvent or mixture, thermodynamic from solid, at 50° C. in DMSO, DMF, DCM/MeOH (1:1), THF/water (4:1), acetone/water (4:1) and chloroform, read-out: Solubility (completely soluble)): > 50000 µg/mL | solubility ([2]; 50 °C, organic solvent or mixture, thermodynamic from solid, at 50° C. in heptane, hexane, toluene, MTBE, isobutyl acetate, IPAc, water, and acetone water (1:4), read-out: Solubility (insoluble)): < 1000 µg/mL | solubility ([2]; Acetone/water (1:1), 50 °C, aqueous with cosolvent or surfactant or cyclodextrin, thermodynamic from solid, Acetone/water (1:1), read-out: Solubility at 50 ± 1° C.): 12600 µg/mL (≈ 29.4 mM) | solubility ([2]; Acetone/water (1:2), 50 °C, aqueous with cosolvent or surfactant or cyclodextrin, thermodynamic from solid, Acetone/water (1:2), read-out: Solubility at 50 ± 1° C.): 3530 µg/mL (≈ 8.22 mM) | solubility ([2]; Acetone/water (1:4), 50 °C, aqueous with cosolvent or surfactant or cyclodextrin, thermodynamic from solid, Acetone/water (1:4), read-out: Solubility at 50 ± 1° C.): 570 µg/mL (≈ 1.33 mM) | solubility ([2]; Acetone/water (2:1), 50 °C, aqueous with cosolvent or surfactant or cyclodextrin, thermodynamic from solid, Acetone/water (2:1), read-out: Solubility at 50 ± 1° C.): 47000 µg/mL (≈ 109 mM) | solubility ([2]; Acetone/water (4:1), 50 °C, aqueous with cosolvent or surfactant or cyclodextrin, thermodynamic from solid, Acetone/water (4:1), read-out: Solubility at 50 ± 1° C.): > 50000 µg/mL | solubility ([2]; DCM/MeOH (1:1), 50 °C, organic solvent or mixture, thermodynamic from solid, DCM/MeOH (1:1), read-out: Solubility at 50 ± 1° C.): > 50000 µg/mL | solubility ([2]; DMF, 50 °C, organic solvent or mixture, thermodynamic from solid, DMF, read-out: Solubility at 50 ± 1° C.): > 50000 µg/mL | solubility ([2]; DMSO, 50 °C, organic solvent or mixture, thermodynamic from solid, DMSO, read-out: Solubility at 50 ± 1° C.): > 50000 µg/mL | solubility ([2]; EtOAc, 50 °C, organic solvent or mixture, thermodynamic from solid, EtOAc, read-out: Solubility at 50 ± 1° C.): 2710 µg/mL (≈ 6.31 mM) | solubility ([2]; EtOH, 50 °C, organic solvent or mixture, thermodynamic from solid, EtOH, read-out: Solubility at 50 ± 1° C.): 8560 µg/mL (≈ 19.9 mM) | solubility ([2]; IPA, 50 °C, organic solvent or mixture, thermodynamic from solid, IPA, read-out: Solubility at 50 ± 1° C.): 2220 µg/mL (≈ 5.17 mM) | solubility ([2]; IPAc, 50 °C, organic solvent or mixture, thermodynamic from solid, IPAc, read-out: Solubility at 50 ± 1° C.): 980 µg/mL (≈ 2.28 mM) | solubility ([2]; MEK, 50 °C, organic solvent or mixture, thermodynamic from solid, MEK, read-out: Solubility at 50 ± 1° C.): 3730 µg/mL (≈ 8.69 mM) | solubility ([2]; MIBK, 50 °C, organic solvent or mixture, thermodynamic from solid, MIBK, read-out: Solubility at 50 ± 1° C.): 2950 µg/mL (≈ 6.87 mM) | solubility ([2]; MeCN, 50 °C, organic solvent or mixture, thermodynamic from solid, MeCN, read-out: Solubility at 50 ± 1° C.): 11600 µg/mL (≈ 26.9 mM) | solubility ([2]; THF, 50 °C, organic solvent or mixture, thermodynamic from solid, THF, read-out: Solubility at 50 ± 1° C.): 11300 µg/mL (≈ 26.3 mM) | solubility ([2]; THF/water (4:1), 50 °C, organic solvent or mixture, thermodynamic from solid, THF/water (4:1), read-out: Solubility at 50 ± 1° C.): > 50000 µg/mL | solubility ([2]; acetone, 50 °C, organic solvent or mixture, thermodynamic from solid, Acetone, read-out: Solubility at 50 ± 1° C.): 15500 µg/mL (≈ 36.1 mM) | solubility ([2]; ethyl formate, 50 °C, organic solvent or mixture, thermodynamic from solid, Ethyl formate, read-out: Solubility at 50 ± 1° C.): 6580 µg/mL (≈ 15.3 mM) | solubility ([2]; hexane, 50 °C, organic solvent or mixture, thermodynamic from solid, Hexane, read-out: Solubility at 50 ± 1° C.): 60 µg/mL (≈ 0.14 mM) | solubility ([2]; isobutyl acetate, 50 °C, organic solvent or mixture, thermodynamic from solid, Isobutyl acetate, read-out: Solubility at 50 ± 1° C.): 750 µg/mL (≈ 1.75 mM) | solubility ([2]; methanol, 50 °C, organic solvent or mixture, thermodynamic from solid, Methanol, read-out: Solubility at 50 ± 1° C.): 17900 µg/mL (≈ 41.6 mM) | solubility ([2]; n-BuOH, 50 °C, organic solvent or mixture, thermodynamic from solid, n-BuOH, read-out: Solubility at 50 ± 1° C.): 6200 µg/mL (≈ 14.4 mM) | solubility ([2]; organic solvent or mixture, thermodynamic from solid, at 50° C. in MeCN, 1,4-dioxane, MeOH, 2-methoxyethanol, THF, acetone, n-BuOH, EtOH, ethyl formate, 1-propanol, MEK, acetone water (2:1), acetone water (1:1), MIBK, EtOAc, IPA, and acetone water (1:2), read-out: Solubility (slightly soluble)): 1000 to 50000 µg/mL (≈ 2.33 to 116 mM) | solubility ([2]; water, 50 °C, water, thermodynamic from solid, Water, read-out: Solubility at 50 ± 1° C.): 10 µg/mL (≈ 0.0233 mM) | Relative stability of polymorphic forms [3]: most stable polymorphic form

C=CC(=O)NCc1cc2c(cn1)CN(c1c(F)c(OC)cc(OC)c1F)C(=O)C21CC1 [Form IV]
solubility ([1]; toluene, 23 °C, organic solvent or mixture, thermodynamic from solid, Toluene, read-out: Solubility at 23 ± 1° C.): 150 µg/mL (≈ 0.349 mM) | solubility ([2]; toluene, 50 °C, organic solvent or mixture, thermodynamic from solid, Toluene, read-out: Solubility at 50 ± 1° C.): 170 µg/mL (≈ 0.396 mM)

C=CC(=O)NCc1cc2c(cn1)CN(c1c(F)c(OC)cc(OC)c1F)C(=O)C21CC1 [Form III]
solubility ([1]; 1,4-dioxane, 23 °C, organic solvent or mixture, thermodynamic from solid, 1,4-Dioxane, read-out: Solubility at 23 ± 1° C.): 3020 µg/mL (≈ 7.03 mM) | solubility ([2]; 1,4-dioxane, 50 °C, organic solvent or mixture, thermodynamic from solid, 1,4-Dioxane, read-out: Solubility at 50 ± 1° C.): 37800 µg/mL (≈ 88 mM)
